Test system: patients with type 2 diabetes at high vascular risk
Test: Cardiovascular and Renal Outcomes Trial: linagliptin 5 mg once daily vs placebo on top of standard of care
Format: in vivo
Details: for Hazard ratio for hospitalised heart failure: vs placebo
Protocol: The effect of linagliptin on cardiovascular risk in adult patients with type 2 diabetes mellitus and with increased CV risk evidenced by a history of established macrovascular or renal disease (e.g. as defined herein) was evaluated in a multi-center, multi-national, randomized, double-blind parallel group trial. The trial compared the risk of experiencing a major adverse cardiovascular event (MACE) between linagliptin and placebo when these were added to and used concomitantly with standard of care treatments for diabetes (HbA1c), cardiovascular risk factors and renal disease.
The primary endpoint in this trial was the time to first occurrence of three point (3P) MACE. A major adverse cardiac event was defined as a cardiovascular death or a nonfatal myocardial infarction (MI) or a nonfatal stroke. The statistical analysis plan tested for non-inferiority for the occurrence of (3P) MACE. […] The secondary endpoint was a renal composite, defined as renal death or sustained end stage renal disease or sustained decrease of 40% or more in eGFR.
Type 2 diabetes patient with insufficient glycemic control (naïve or pre-treated with any antidiabetic background medication, excluding treatment with GLP-1 receptor agonists, DPP-4inhibitors or SGLT-2 inhibitors if ≥consecutive 7 days, e.g. having HbA1c 6.5-10%), and high risk of cardiovascular events, e.g. defined by: • albuminuria (micro or macro) and previous macrovascular disease: e.g. defined according to Condition I as indicated below; • and/or • impaired renal function: e.g. as defined according to Condition II as indicated below;
Background and aims: People with type 2 diabetes (T2D) are at increased risk for hospitalization for heart failure (hHF), particularly in the setting of concomitant cardiovascular (CV) and/or kidney disease. […] Here we present analyses of HF outcomes with the DPP-4 inhibitor linagliptin (LINA) vs. placebo (PBO) from a Cardiovascular and Renal Outcomes Trial assessing cardiovascular safety and renal microvascular outcome in patients with type 2 diabetes at high vascular risk, a large CV outcomes trial that enrolled participants with T2D at high risk for hHF due to concomitant CV and/or chronic kidney disease. Materials and methods: People with T2D and concomitant CV and/or kidney disease were randomized to receive LINA 5 mg, or PBO once daily (1:1), on top of standard of care. All hHF, CV outcomes, and deaths were centrally adjudicated, with individual and composite HF-related outcomes analyses comparing LINA vs. placebo. Investigator-reported HF-related adverse events, whether or not confirmed by adjudication, were also analyzed. A Cox proportional hazards model adjusting for region and history of HF was used for analyses of first events. Recurrent hHF events were analyzed using a negative binomial model.
Methods: The present Cardiovascular and Renal Outcomes Trial randomized people with T2D and i) concomitant CV disease with UACR >30 mg/g or ii) prevalent CKD (i.e. GFR <45 ml/min/1.73m2 and/or UACR >200 mg/g) to receive the DPP-4 inhibitor linagliptin (5 mg) or placebo once daily in a double-blind fashion. The primary CV endpoint was 3P-MACE, with a key secondary kidney endpoint (adjudicated ESKD, renal death, or sustained ≥40% decrease in eGFR from baseline) and other renal outcomes (including albuminuria and eGFR slope) also assessed. Subgroups were assessed by baseline kidney function (eGFR ≥/<45 ml/min/1.73m2and eGFR ≥/<30, 45 or 60 ml/min/1.73m2).
Adults with type 2 diabetes, HbA1c 6.5-10.0% inclusive, and high CV risk were eligible for inclusion. […] Macrovascular disease eligibility criteria was based on documented and confirmed history of myocardial infarction, coronary artery disease, stroke, carotid artery disease, or peripheral artery disease. Participants with end-stage kidney disease (ESKD), defined as eGFR <15 or requiring maintenance dialysis, were excluded.

[1] = CKD prognosis by KDIGO Very high
[2] = Calcium channel blockers (CCB) No
[3] = Calcium channel blockers (CCB) Yes
[4] = Cardiorenal risk: Albuminuria and previous macrovascular disease plus eGFR 45-75 mL/min/1.73 m^2 with an UACR >200 mg/g
[5] = Cardiorenal risk: Albuminuria and previous macrovascular disease plus renal impairment (eGFR 15-<45 mL/min/1.73 m^2 with any UACR mg/g)
[6] = Cardiorenal risk: Albuminuria and previous macrovascular disease without eGFR>45 mL/min/1.73 m2
[7] = Duration of type 2 diabetes >5 to <10 years
[8] = Duration of type 2 diabetes ≤5 years

`CC#CCn1c(N2CCC[C@@H](N)C2)nc2c1c(=O)n(Cc1nc(C)c3ccccc3n1)c(=O)n2C` [Linagliptin, 1-[(4-methyl-quinazolin-2-yl)methyl]-3-methyl-7-(2-butyn-1-yl)-8-(3-(R)-amino-piperidin-1-yl)-xanthine] was tested, and the “3-point MACE: hazard ratio vs placebo” value (Body mass index ≥30 kg/m^2) was 1.06, the “3-point MACE: patients with event/patients analyzed” value (Body mass index ≥30 kg/m^2) was 243/1978 and the “Key secondary kidney outcome: hazard ratio vs placebo” value (Body mass index ≥30 kg/m^2) was 0.96. For the same molecule, the “Key secondary kidney outcome: patients with event/patients analyzed” value (Body mass index ≥30 kg/m^2) was 165/1978, the “Patients with event/patients analysed, hospitalised heart failure” value (from here on “Patients with event/patients analysed”) (Body mass index ≥30 kg/m^2) was 131/1978 and the “Hazard ratio for hospitalised heart failure” value (Body mass index ≥30 kg/m^2) was 0.86. The “3-point MACE: hazard ratio vs placebo” value (CKD prognosis by KDIGO High) was 1.05, the “3-point MACE: patients with event/patients analyzed” value (CKD prognosis by KDIGO High) was 111/995 and the “Key secondary kidney outcome: patients with event/patients analyzed” value (CKD prognosis by KDIGO High) was 57/995. The “Patients with event/patients analysed” value (CKD prognosis by KDIGO High) was 45/995, the “3-point MACE: hazard ratio vs placebo” value (CKD prognosis by KDIGO Low) was 1.13 and the “3-point MACE: patients with event/patients analyzed” value (CKD prognosis by KDIGO Low) was 11/232. The “Key secondary kidney outcome: patients with event/patients analyzed” value (CKD prognosis by KDIGO Low) was 8/232, the “Patients with event/patients analysed” value (CKD prognosis by KDIGO Low) was 2/232 and the “3-point MACE: hazard ratio vs placebo” value (CKD prognosis by KDIGO Medium) was 0.89. The “3-point MACE: patients with event/patients analyzed” value (CKD prognosis by KDIGO Medium) was 61/766, the “Key secondary kidney outcome: patients with event/patients analyzed” value (CKD prognosis by KDIGO Medium) was 14/766 and the “Patients with event/patients analysed” value (CKD prognosis by KDIGO Medium) was 18/766. For the same molecule, the “3-point MACE: hazard ratio vs placebo” value [1] was 1.04, the “3-point MACE: patients with event/patients analyzed” value [1] was 250/1499 and the “Key secondary kidney outcome: patients with event/patients analyzed” value [1] was 248/1499. The “Patients with event/patients analysed” value [1] was 144/1499, the “Patients with event/patients analysed” value [2] was 113/2061 and the “Hazard ratio for hospitalised heart failure” value [2] was 0.86. The “Patients with event/patients analysed” value [3] was 96/1433, the “Hazard ratio for hospitalised heart failure” value [3] was 0.94 and the “3-point MACE: hazard ratio vs placebo” value (Calcium channel blockers No) was 0.91. The “3-point MACE: patients with event/patients analyzed” value (Calcium channel blockers No) was 239/2061, the “Key secondary kidney outcome: hazard ratio vs placebo” value (Calcium channel blockers No) was 1.03 and the “Key secondary kidney outcome: patients with event/patients analyzed” value (Calcium channel blockers No) was 155/2061. For the same molecule, the “3-point MACE: hazard ratio vs placebo” value (Calcium channel blockers Yes) was 1.21, the “3-point MACE: patients with event/patients analyzed” value (Calcium channel blockers Yes) was 195/1433 and the “Key secondary kidney outcome: hazard ratio vs placebo” value (Calcium channel blockers Yes) was 1.05. For the same molecule, the “Key secondary kidney outcome: patients with event/patients analyzed” value (Calcium channel blockers Yes) was 172/2860, the “3-point MACE: hazard ratio vs placebo” value (Cardiorenal risk Cat A) was 0.97 and the “3-point MACE: patients with event/patients analyzed” value (Cardiorenal risk Cat A) was 117/1361. For the same molecule, the “Key secondary kidney outcome: hazard ratio vs placebo” value (Cardiorenal risk Cat A) was 1.22, the “Key secondary kidney outcome: patients with event/patients analyzed” value (Cardiorenal risk Cat A) was 38/1361 and the “3-point MACE: hazard ratio vs placebo” value (Cardiorenal risk Cat B) was 0.92. The “3-point MACE: patients with event/patients analyzed” value (Cardiorenal risk Cat B) was 86/394, the “Key secondary kidney outcome: hazard ratio vs placebo” value (Cardiorenal risk Cat B) was 0.79 and the “Key secondary kidney outcome: patients with event/patients analyzed” value (Cardiorenal risk Cat B) was 51/394. The “3-point MACE: hazard ratio vs placebo” value (Cardiorenal risk Cat C) was 0.76, the “3-point MACE: patients with event/patients analyzed” value (Cardiorenal risk Cat C) was 33/253 and the “Key secondary kidney outcome: hazard ratio vs placebo” value (Cardiorenal risk Cat C) was 1.53. For the same molecule, the “Key secondary kidney outcome: patients with event/patients analyzed” value (Cardiorenal risk Cat C) was 23/253, the “3-point MACE: hazard ratio vs placebo” value (Cardiorenal risk Cat D) was 1.12 and the “3-point MACE: patients with event/patients analyzed” value (Cardiorenal risk Cat D) was 163/1153. For the same molecule, the “Key secondary kidney outcome: hazard ratio vs placebo” value (Cardiorenal risk Cat D) was 1.01, the “Key secondary kidney outcome: patients with event/patients analyzed” value (Cardiorenal risk Cat D) was 180/1153 and the “3-point MACE: hazard ratio vs placebo” value (Cardiorenal risk Cat E) was 1.13. For the same molecule, the “3-point MACE: patients with event/patients analyzed” value (Cardiorenal risk Cat E) was 32/309, the “Key secondary kidney outcome: hazard ratio vs placebo” value (Cardiorenal risk Cat E) was 1.04 and the “Key secondary kidney outcome: patients with event/patients analyzed” value (Cardiorenal risk Cat E) was 35/309. The “Patients with event/patients analysed” value [4] was 67/647, the “Hazard ratio for hospitalised heart failure” value [4] was 0.81 and the “Patients with event/patients analysed” value [5] was 95/14612. The “Hazard ratio for hospitalised heart failure” value [5] was 0.86, the “Patients with event/patients analysed” value [6] was 46/1361 and the “Hazard ratio for hospitalised heart failure” value [6] was 1.19. The “3-point MACE: hazard ratio vs placebo” value (Diuretics No) was 1.15, the “3-point MACE: patients with event/patients analyzed” value (Diuretics No) was 159/1602 and the “Key secondary kidney outcome: hazard ratio vs placebo” value (Diuretics No) was 1.06. The “Key secondary kidney outcome: patients with event/patients analyzed” value (Diuretics No) was 129/1602, the “Patients with event/patients analysed” value (Diuretics No) was 53/1602 and the “Hazard ratio for hospitalised heart failure” value (Diuretics No) was 1.26. The “3-point MACE: hazard ratio vs placebo” value (Diuretics Yes) was 0.97, the “3-point MACE: patients with event/patients analyzed” value (Diuretics Yes) was 275/1892 and the “Key secondary kidney outcome: hazard ratio vs placebo” value (Diuretics Yes) was 1.04. For the same molecule, the “Key secondary kidney outcome: patients with event/patients analyzed” value (Diuretics Yes) was 198/1892, the “Patients with event/patients analysed” value (Diuretics Yes) was 156/1892 and the “Hazard ratio for hospitalised heart failure” value (Diuretics Yes) was 0.83. For the same molecule, the “3-point MACE: hazard ratio vs placebo” value [7] was 1.01, the “3-point MACE: patients with event/patients analyzed” value [7] was 73/696 and the “Key secondary kidney outcome: hazard ratio vs placebo” value [7] was 0.94. The “Key secondary kidney outcome: patients with event/patients analyzed” value [7] was 56/699, the “Patients with event/patients analysed” value [7] was 42/696 and the “Hazard ratio for hospitalised heart failure” value [7] was 0.96. For the same molecule, the “3-point MACE: hazard ratio vs placebo” value [8] was 0.98, the “3-point MACE: patients with event/patients analyzed” value [8] was 45/521 and the “Key secondary kidney outcome: hazard ratio vs placebo” value [8] was 1.97. The “Key secondary kidney outcome: patients with event/patients analyzed” value [8] was 41/521, the “Patients with event/patients analysed” value [8] was 18/521 and the “Hazard ratio for hospitalised heart failure” value [8] was 0.82. For the same molecule, the “3-point MACE: hazard ratio vs placebo” value (Duration of type 2 diabetes ≥10 years) was 1.03.

From US20240398817A1, “CARDIO- AND RENOSAFE ANTIDIABETIC THERAPY” (priority 2018, published 2024)
